Experimental data as given in ChEMBL document CHEMBL5104164, “Design, synthesis, and biological evaluation of pyrrolopyrimidine derivatives as novel Bruton's tyrosine kinase (BTK) inhibitors” (Eur J Med Chem, 2022).
Activity calls are given as the source filed them. The rule behind the calls is not given here.

Assays:
[1] = AUC (0 to infinity) in male BALB/c mouse at 2 mg/kg, iv; format: ADME, organism-based; design: time infinity, dose 2 mg/kg, route iv; details: in vivo
[2] = biological target: Receptor tyrosine-protein kinase erbB-4 (Homo sapiens) (UniProt Q15303); assay: Inhibition of ERBB4 (unknown origin) assessed as residual percent of control at 1 uM measured by DiscoverX kinome scan assay relative to control
[3] = test system: SU-DHL-6; assay: Antiproliferative activity against human SU-DHL-6 cells incubated for 72 hrs by CellTiter-Glo assay; format: functional, cell-based; details: SU-DHL-6, 72 h
[4] = test system: TMD8; assay: Induction of apoptosis in human TMD8 cells assessed as apoptotic cells 100 nM incubated for 72 hrs by AnnexinV-FITC/propidium iodide staining based flow cytometric analysis; format: functional
[5] = Toxicity in female CB-17 SCID nude mouse xenografted with human TMD8 cells assessed as reduction in white blood cells at 50 mg/kg, po administered twice daily for 21 days; format: organism-based; details: in vivo, 504 h, time 21 day
[6] = Tmax in male BALB/c mouse at 10 mg/kg, po; format: ADME, organism-based; details: in vivo
[7] = Half-life in male BALB/c mouse at 2 mg/kg, iv; format: ADME, organism-based; details: in vivo
[8] = test system: DOHH-2; assay: Antiproliferative activity against human DOHH-2 cells incubated for 72 hrs by CellTiter-Glo assay; format: functional, cell-based; details: DOHH-2, 72 h
[9] = test system: TMD8; assay: Antiproliferative activity against human TMD8 cells incubated for 72 hrs by CellTiter-Glo assay; details: TMD8, 72 h
[10] = test system: TMD8; assay: Cell cycle arrest in human TMD8 cells assessed as accumulation of cells at S phase at 1 nM after 48 hrs by propidium iodide staining based flow cytometric analysis (reference value: 49.3%); format: functional
[11] = test system: Raji; assay: Antiproliferative activity against human Raji cells incubated for 72 hrs by CellTiter-Glo assay; format: functional, cell-based
[12] = test system: OCI-Ly3; assay: Antiproliferative activity against human OCILY3 cells incubated for 72 hrs by CellTiter-Glo assay; format: functional, cell-based; details: OCI-Ly3, 72 h
[13] = biological target: Epidermal growth factor receptor (Homo sapiens) (UniProt P00533); assay: Inhibition of EGFR (unknown origin) assessed as residual percent of control at 1 uM measured by DiscoverX kinome scan assay relative to control
[14] = test system: Pfeiffer; assay: Antiproliferative activity against human Pfeiffer cells incubated for 72 hrs by CellTiter-Glo assay; format: functional, cell-based
[15] = Mutagenicity in Salmonella typhimurium TA1537 at 1.5 to 1000 ug per plate in presence of liver microsomes by AMES test; format: toxicity, Salmonella enterica subsp. enterica serovar Typhimurium; details: dose 1.5-1000 µg
[16] = Toxicity in female CB-17 SCID nude mouse xenografted with human TMD8 cells assessed as effect on platelets at 50 mg/kg, po administered twice daily for 21 days; format: organism-based; details: in vivo, 504 h, time 21 day
[17] = test system: TMD8; assay: Cell cycle arrest in human TMD8 cells assessed as accumulation of cells at G2 phase at 10 nM after 48 hrs by propidium iodide staining based flow cytometric analysis (reference value: 13.4%); format: functional
[18] = biological target: Voltage-gated inwardly rectifying potassium channel KCNH2 (Homo sapiens, UniProt Q12809); assay: Inhibition of hERG; format: toxicity
[19] = test system: TMD8; assay: Cell cycle arrest in human TMD8 cells assessed as accumulation of cells at G2 phase at 1 nM after 48 hrs by propidium iodide staining based flow cytometric analysis (reference value: 13.4%); format: functional
[20] = test system: TMD8; assay: Cell cycle arrest in human TMD8 cells assessed as accumulation of cells at G0/G1 phase at 10 nM after 48 hrs by propidium iodide staining based flow cytometric analysis (reference value: 32.9%); format: functional
[21] = Mutagenicity in Salmonella typhimurium TA98 at 1.5 to 1000 ug per plate in presence of liver microsomes by AMES test; format: toxicity, Salmonella enterica subsp. enterica serovar Typhimurium; details: dose 1.5-1000 µg
[22] = test system: TMD8; assay: Cell cycle arrest in human TMD8 cells assessed as accumulation of cells at S phase at 10 nM after 48 hrs by propidium iodide staining based flow cytometric analysis (reference value: 49.3%); format: functional
[23] = test system: Rec1; assay: Antiproliferative activity against human REC1 cells incubated for 72 hrs by CellTiter-Glo assay; format: functional, cell-based; details: Rec1, 72 h
[24] = test system: TMD8; assay: Antitumor activity against human TMD8 cells xenografted in female CB-17 SCID nude mouse assessed as tumor growth inhibition at 50 mg/kg, po administered twice daily for 21 days; format: functional; details: TMD8, 504 h, time 21 day, read-out: TGI
[25] = test system: TMD8; assay: Antitumor activity against human TMD8 cells xenografted in female CB-17 SCID nude mouse assessed as tumor suppression at 12.5 to 25 mg/kg, po administered twice daily for 21 days; format: functional, organism-based; details: dose 12.5-25 mg/kg, time 21.0 day
[26] = Toxicity in female CB-17 SCID nude mouse xenografted with human TMD8 cells assessed as reduction in monocytes at 50 mg/kg, po administered twice daily for 21 days; format: organism-based; details: in vivo, 504 h, time 21 day
[27] = biological target: Tyrosine-protein kinase BTK (Homo sapiens, UniProt Q06187); assay: Inhibition of BTK (unknown origin) measured by ADP-Glo assay
[28] = Mutagenicity in Salmonella typhimurium TA1535 at 1.5 to 1000 ug per plate in presence of liver microsomes by AMES test; format: toxicity, Salmonella enterica subsp. enterica serovar Typhimurium; details: dose 1.5-1000 µg
[29] = Apparent volume of distribution in male BALB/c mouse at 2 mg/kg, iv; format: ADME, organism-based; details: in vivo, read-out: Vz

Epidermal growth factor receptor (Homo sapiens), sequence (P00533 whole entry): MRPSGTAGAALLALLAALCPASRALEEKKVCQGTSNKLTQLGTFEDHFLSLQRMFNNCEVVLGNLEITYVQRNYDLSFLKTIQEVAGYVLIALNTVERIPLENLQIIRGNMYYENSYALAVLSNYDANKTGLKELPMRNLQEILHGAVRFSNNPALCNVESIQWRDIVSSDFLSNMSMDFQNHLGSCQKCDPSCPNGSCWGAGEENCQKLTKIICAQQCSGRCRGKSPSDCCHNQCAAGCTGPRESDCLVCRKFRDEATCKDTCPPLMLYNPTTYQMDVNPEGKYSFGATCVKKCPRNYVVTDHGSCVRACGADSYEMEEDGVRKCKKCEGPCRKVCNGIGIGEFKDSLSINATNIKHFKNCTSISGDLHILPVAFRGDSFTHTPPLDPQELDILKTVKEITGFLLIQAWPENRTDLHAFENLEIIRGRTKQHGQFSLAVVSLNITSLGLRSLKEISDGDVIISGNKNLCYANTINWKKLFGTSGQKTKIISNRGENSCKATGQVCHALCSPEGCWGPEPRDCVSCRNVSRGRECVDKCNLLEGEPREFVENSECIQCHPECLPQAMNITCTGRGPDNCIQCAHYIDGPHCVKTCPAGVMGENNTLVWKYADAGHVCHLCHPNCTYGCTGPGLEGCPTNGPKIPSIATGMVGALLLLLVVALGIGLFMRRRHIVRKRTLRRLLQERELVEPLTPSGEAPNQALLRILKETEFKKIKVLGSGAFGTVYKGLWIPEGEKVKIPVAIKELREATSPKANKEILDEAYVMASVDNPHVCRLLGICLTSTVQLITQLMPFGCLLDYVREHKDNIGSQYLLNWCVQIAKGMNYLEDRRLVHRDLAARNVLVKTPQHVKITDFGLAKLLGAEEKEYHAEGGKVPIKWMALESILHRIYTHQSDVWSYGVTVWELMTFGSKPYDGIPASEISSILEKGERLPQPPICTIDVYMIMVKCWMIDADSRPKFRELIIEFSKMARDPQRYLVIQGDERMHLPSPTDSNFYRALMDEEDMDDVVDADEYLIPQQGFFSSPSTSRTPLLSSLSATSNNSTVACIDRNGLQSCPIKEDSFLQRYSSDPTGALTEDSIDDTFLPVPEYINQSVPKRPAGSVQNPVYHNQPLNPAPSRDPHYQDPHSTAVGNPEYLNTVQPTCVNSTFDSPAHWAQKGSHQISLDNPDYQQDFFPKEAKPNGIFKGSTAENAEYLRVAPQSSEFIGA
Tyrosine-protein kinase BTK, sequence (Q06187 whole entry): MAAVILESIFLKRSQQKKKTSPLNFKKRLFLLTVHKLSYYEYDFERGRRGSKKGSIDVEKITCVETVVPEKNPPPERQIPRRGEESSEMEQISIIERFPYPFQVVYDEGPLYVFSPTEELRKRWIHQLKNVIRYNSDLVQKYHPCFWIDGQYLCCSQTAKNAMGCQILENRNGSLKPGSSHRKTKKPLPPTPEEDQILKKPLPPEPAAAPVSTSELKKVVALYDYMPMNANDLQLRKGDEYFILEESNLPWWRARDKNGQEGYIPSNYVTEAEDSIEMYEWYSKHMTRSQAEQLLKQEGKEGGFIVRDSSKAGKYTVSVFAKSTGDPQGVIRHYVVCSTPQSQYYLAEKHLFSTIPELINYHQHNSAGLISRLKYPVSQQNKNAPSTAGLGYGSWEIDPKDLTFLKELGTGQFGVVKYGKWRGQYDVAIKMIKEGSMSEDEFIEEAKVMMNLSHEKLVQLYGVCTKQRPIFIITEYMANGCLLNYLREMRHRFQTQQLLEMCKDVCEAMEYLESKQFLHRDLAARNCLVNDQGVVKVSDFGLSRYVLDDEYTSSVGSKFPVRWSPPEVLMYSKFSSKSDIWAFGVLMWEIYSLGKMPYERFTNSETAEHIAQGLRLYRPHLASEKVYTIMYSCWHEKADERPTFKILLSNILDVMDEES
Voltage-gated inwardly rectifying potassium channel KCNH2, sequence (Q12809 whole entry): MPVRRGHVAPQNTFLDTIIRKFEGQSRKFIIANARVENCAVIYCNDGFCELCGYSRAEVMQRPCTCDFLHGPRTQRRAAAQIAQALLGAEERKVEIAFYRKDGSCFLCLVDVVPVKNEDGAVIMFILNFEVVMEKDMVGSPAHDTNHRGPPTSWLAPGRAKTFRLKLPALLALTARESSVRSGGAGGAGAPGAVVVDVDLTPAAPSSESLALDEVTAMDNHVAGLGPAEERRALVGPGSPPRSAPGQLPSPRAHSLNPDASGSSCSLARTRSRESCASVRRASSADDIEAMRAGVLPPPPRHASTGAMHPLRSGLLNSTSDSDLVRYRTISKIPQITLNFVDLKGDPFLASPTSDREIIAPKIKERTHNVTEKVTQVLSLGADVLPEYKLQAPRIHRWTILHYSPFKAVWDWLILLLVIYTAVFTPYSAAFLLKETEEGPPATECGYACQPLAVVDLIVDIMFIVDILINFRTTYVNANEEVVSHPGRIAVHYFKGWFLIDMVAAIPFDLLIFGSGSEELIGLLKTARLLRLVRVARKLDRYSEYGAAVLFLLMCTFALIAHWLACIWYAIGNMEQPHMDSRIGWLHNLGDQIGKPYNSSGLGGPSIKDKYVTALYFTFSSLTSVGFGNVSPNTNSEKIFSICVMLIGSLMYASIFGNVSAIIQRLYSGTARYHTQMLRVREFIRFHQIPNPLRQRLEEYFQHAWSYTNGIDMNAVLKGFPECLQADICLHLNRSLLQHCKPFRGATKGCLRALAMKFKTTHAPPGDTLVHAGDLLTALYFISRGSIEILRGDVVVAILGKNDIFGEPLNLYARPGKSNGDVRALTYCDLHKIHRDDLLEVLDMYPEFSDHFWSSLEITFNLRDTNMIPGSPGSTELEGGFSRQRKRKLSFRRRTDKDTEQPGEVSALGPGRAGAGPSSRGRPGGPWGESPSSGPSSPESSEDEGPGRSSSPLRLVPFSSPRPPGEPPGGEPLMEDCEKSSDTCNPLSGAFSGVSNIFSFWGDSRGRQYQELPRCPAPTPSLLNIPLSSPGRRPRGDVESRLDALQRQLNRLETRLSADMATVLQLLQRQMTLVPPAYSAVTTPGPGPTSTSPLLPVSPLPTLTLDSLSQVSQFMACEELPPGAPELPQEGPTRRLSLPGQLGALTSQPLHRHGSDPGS
Receptor tyrosine-protein kinase erbB-4 (Homo sapiens), sequence (Q15303 whole entry): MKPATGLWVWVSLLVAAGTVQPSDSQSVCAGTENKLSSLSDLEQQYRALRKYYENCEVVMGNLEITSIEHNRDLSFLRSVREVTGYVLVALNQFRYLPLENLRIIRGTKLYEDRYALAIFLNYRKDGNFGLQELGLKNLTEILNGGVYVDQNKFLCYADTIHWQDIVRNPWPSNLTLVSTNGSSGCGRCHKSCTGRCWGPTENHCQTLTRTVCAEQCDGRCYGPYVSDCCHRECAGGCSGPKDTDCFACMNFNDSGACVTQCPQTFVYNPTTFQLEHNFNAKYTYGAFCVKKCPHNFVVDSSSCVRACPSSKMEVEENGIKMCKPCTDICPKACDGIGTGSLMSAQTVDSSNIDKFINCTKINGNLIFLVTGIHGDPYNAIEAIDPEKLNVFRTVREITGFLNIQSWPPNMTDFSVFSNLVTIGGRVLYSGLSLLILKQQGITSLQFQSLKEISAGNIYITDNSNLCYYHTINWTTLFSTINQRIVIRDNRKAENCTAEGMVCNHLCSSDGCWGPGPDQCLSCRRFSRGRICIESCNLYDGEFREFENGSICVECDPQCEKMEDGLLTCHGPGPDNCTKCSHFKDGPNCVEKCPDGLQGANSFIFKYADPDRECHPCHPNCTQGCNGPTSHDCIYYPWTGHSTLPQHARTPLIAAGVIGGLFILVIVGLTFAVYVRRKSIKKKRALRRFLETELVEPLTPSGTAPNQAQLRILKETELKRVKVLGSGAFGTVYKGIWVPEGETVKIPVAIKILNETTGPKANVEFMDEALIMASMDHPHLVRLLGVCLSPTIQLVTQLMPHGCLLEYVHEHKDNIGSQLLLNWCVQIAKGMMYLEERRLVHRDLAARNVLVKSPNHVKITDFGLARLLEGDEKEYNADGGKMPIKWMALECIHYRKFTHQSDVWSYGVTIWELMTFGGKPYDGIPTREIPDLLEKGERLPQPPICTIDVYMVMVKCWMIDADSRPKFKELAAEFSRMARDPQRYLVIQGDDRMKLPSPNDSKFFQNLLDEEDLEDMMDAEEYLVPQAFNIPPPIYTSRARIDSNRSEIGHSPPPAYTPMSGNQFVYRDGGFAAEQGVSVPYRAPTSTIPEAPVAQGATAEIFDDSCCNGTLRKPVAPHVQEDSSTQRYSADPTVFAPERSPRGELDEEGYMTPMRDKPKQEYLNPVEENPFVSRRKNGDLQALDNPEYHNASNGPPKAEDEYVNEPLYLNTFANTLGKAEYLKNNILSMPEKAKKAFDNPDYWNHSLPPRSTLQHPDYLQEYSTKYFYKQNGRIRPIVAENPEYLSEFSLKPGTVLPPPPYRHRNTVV

C=CC(=O)N1CC=C(c2c[nH]c3ncnc(-c4ccc(CNC(=O)c5ccccc5)c(F)c4)c23)CC1
AUC(0-inf) [1]: 718 ng·h/mL | Activity [2]: 0.55% | IC50 [3]: > 10 µM | Activity [4]: 25.2% | Activity [5]: Toxic | Tmax [6]: 23.4 min | half-life [7]: 40.2 min | IC50 [8]: 5.26 µM | IC50 [9]: 0.0026 µM | Activity [10]: 49.3% | IC50 [11]: > 10 µM | IC50 [12]: > 10 µM | Activity [13]: 44% | IC50 [14]: > 10 µM | Activity [15]: Non-Toxic | Activity [16]: Non-Toxic | Activity [17]: 8.7% | IC50 [18]: 4.38 µM | Activity [19]: 11.8% | Activity [20]: 59.2% | Activity [21]: Non-Toxic | Activity [22]: 26.4% | IC50 [23]: 0.0017 µM | inhibition in vivo at 50 mg/kg [24]: 104% | Activity [25]: Active | Activity [26]: Toxic | IC50 [27]: 0.0007 µM | Activity [28]: Non-Toxic | Vd [29]: 2.79 L/kg
